Data reported in publication PMC9609861, “Nebivolol as a Potent TRPM8 Channel Blocker: A Drug-Screening Approach through Automated Patch Clamping and Ligand-Based Virtual Screening” (Membranes, 2022).
Where two headings read alike, the source gives them in different places.

Molecular target: T1, human TRPM8 (Homo sapiens, UniProt Q7Z2W7)
T1 construct: expressed in transfected cells
Test: Automated patch clamp (IonFlux 16) of menthol-evoked TRPM8 currents in HEK293 cells stably expressing human TRPM8
Format: cell-based
Description: HEK293 cells, stably expressing human TRPM8 (GenBank number NM_024080), were cultured in T75 tissue culture flasks using Dulbecco’s modified Eagle medium (Euroclone, Pero, Italy), supplemented with 10% FBS (Euroclone, Pero, Italy) plus Geneticin (Sigma-Aldrich, St. Louis, MI, USA) 800 μg/mL at 37° C, in a humidified 5% CO2 atmosphere. The cells were maintained until they reached 70~80% confluency. Prior to use, the cells were washed twice with Ca^2+ and Mg^2+ free PBS (Euroclone, Pero, Italy), subsequently detached using Accutase (Euroclone, Pero, Italy), and kept in suspension using CHO-SFM-II medium (Gibco, by Thermo Fisher Scientific, Carlsbad, CA, USA). The cells were then resuspended in the external solution after a centrifugation at 1000 rpm for 2 min. Single-cells suspension, with a final concentration of 3–5 million cells/mL, was required for the automated patch clamp electrophysiology procedure.
We performed automated patch clamp recordings by using the IonFlux 16 system (Fluxion Biosciences, Alameda, CA, USA). The procedure includes four automated phases—prime, trap, break, and data acquisition—in the whole-cells voltage clamp. The cells were voltage clamped at a holding potential of −60 mV, stepped to −100 mV, ramped to +100 mV in 200 ms, and finally stepped back to −60 mV. Voltage command was executed every 5 s, and currents were recorded with a sampling rate of 5 kHz. […] The interval range between each application was 90 s, and intervals included washing cells with an external solution-containing vehicle. However, the duration of each application was adjusted based on each drug’s lipophilicity and kinetic of inhibition. For leakage subtraction, leakage was measured by applying a short 20 mV pulse (typically from −80 mV to −100 mV) at the beginning of each sweep to measure the current difference. By assuming linear leakage and subtracting proportional currents from each of the different voltage command segments, the software performs automatic leakage subtraction. […] The extracellular solution contained 140 mM NaCl, 4 mM KCl, 1 mM MgCl2, 10 mM glucose, and 10 mM HEPES, pH 7.4 with NaOH and 310 mOsm. We removed Ca^2+ from the external solution to avoid the Ca^2+-dependent desensitization of TRPM8. The intracellular solution contained the following (mM): 60 CsCl, 70 CsF, 5 Na2ATP, 10 HEPES, and 10 EGTA, pH 7.2 with CSOH and 295 mOsm. All recordings were performed at a temperature of 20 ± 1 °C.
All compounds were obtained from Sigma-Aldrich. Stock solutions were prepared in 50 mM of dimethyl sulfoxide (DMSO) and stored at −20° C.
The analysis of the data was carried out using the ‘data analyzer software’ (Data Analyzer v. 5.0 (beta), Fluxion Biosciences, Alameda, CA, USA), Microsoft Excel 365, and the Prism 9.0 software (GraphPad Software Inc., San Diego, CA, USA). The average current density of the last three recordings at +80 mV in each application period was used as the current amplitude.
IC50 and EC50 were calculated by fitting the four-parameter Hill equation using GraphPad Prism.
Four-parameter Hill equation: f(x)=Imin+(Imax−Imin/1+(C50/x)^h)
Data are expressed as the mean ± standard deviation (SD).

[1] = HEK293; read-out: Average Percentage Inhibition at 10 µM
[2] = at concentrations higher than IC50, prolonged washing, data not shown
[3] = read-out: IC50, inhibition of menthol-induced TRPM8 current
[4] = at concentrations higher than 50 µM

T1 sequence (Q7Z2W7 whole entry): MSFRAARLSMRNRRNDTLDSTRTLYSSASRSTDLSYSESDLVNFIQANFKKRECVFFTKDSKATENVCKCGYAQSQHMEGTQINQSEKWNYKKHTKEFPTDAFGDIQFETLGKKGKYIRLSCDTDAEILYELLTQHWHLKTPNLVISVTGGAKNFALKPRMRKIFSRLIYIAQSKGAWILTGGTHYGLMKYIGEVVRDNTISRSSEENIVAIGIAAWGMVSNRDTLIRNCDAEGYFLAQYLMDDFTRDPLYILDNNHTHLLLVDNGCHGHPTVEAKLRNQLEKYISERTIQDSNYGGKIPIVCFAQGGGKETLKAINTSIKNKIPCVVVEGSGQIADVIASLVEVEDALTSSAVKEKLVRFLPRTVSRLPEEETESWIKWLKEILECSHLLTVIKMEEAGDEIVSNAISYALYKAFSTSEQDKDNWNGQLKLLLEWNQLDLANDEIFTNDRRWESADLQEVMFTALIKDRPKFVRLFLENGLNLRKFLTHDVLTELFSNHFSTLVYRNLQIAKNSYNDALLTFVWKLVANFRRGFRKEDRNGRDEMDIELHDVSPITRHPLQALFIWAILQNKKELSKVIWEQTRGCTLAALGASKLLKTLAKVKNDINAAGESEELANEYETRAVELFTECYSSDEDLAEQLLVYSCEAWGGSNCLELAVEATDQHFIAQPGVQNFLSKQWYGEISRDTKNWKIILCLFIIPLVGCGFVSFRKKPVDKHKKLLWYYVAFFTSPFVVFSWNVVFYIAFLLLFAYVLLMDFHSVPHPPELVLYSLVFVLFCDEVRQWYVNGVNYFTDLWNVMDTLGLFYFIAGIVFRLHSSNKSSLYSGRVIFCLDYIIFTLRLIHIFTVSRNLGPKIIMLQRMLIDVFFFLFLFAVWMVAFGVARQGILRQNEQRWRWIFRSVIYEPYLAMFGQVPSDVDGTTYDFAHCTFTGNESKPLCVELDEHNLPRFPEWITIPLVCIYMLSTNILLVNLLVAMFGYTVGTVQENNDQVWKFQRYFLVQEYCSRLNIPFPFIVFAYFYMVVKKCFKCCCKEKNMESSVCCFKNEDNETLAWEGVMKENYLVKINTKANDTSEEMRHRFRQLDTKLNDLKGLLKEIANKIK

SMILES | inhibition at 10 µM [1] [%] | also measured
Cc1cccc(COc2ccccc2C(=O)N(CCCN)Cc2cccs2)c1.Cl [AMTB, N-(3-Aminopropyl)-2-[(3-methylphenyl)methoxy]-N-(2-thienylmethyl)benzamide hydrochloride] | – | Block of menthol-activated currents (1 µM AMTB): fully blocked
CCCC(=O)Nc1ccc(OCC(O)CNC(C)C)c(C(C)=O)c1 (stereo not drawn) [Acebutolol, acebutolol] | 0 | –
CC(C)NCC(O)COc1ccc(CC(N)=O)cc1 (stereo not drawn) [Atenolol, atenolol] | 0 | –
NC(=O)N1c2ccccc2C=Cc2ccccc21 [Carbamazepine, carbamazepine] | 0 | –
COc1ccccc1OCCNCC(O)COc1cccc2[nH]c3ccccc3c12 (stereo not drawn) [Carvedilol, carvedilol] | 57 | Reversibility of the inhibiting effect on washing [2]: irreversible inhibiting effect; IC50 [3]: 9.1 ± 0.6 µM; Blocking effect on TRPM8 menthol-evoked currents (β-blocker screen): showed a blocking effect
O=C(NCC1CCCCN1)c1cc(OCC(F)(F)F)ccc1OCC(F)(F)F (stereo not drawn) [Flecainide, flecainide] | 0 | Block of outward TRPM8 currents induced by menthol [4]: partial block
NCC1(CC(=O)O)CCCCC1 [Gabapentin, gabapentin] | – | inhibition at 10 µM (HEK293, read-out: Average Percentage Inhibition at 10 µM): 0%
Nc1nnc(-c2cccc(Cl)c2Cl)c(N)n1 [Lamotrigine, lamotrigine] | 0 | –
COCCc1ccc(OCC(O)CNC(C)C)cc1 (stereo not drawn) [Metoprolol, metoprolol] | 0 | –
Cc1cccc(C)c1OCC(C)N (stereo not drawn) [Mexiletine, mexiletine] | 0 | –
CC(C)(C)NCC(O)COc1cccc2c1CC(O)C(O)C2 (stereo not drawn) [Nadolol, nadolol] | 0 | –
OC(CNCC(O)C1CCc2cc(F)ccc2O1)C1CCc2cc(F)ccc2O1 (stereo not drawn) [Nebivolol, nebivolol] | 100 | Reversibility of the inhibiting effect on washing [2]: irreversible inhibiting effect; Inhibitory effect of nebivolol compared with carvedilol (electrophysiological data): ten times stronger; IC50 [3]: 0.97 ± 0.15 µM; Blocking effect on TRPM8 menthol-evoked currents (β-blocker screen): showed a blocking effect
NC(=O)N1c2ccccc2CC(=O)c2ccccc21 [Oxcarbazepine, oxcarbazepine] | 0 | –
O=C1NC(=O)C(c2ccccc2)(c2ccccc2)N1 [Phenytoin, phenytoin] | 0 | Block of outward TRPM8 currents induced by menthol [4]: partial block
CCCNCC(O)COc1ccccc1C(=O)CCc1ccccc1 (stereo not drawn) [Propafenone, propafenone] | 26 | Block of outward TRPM8 currents induced by menthol (below 50 µM): significant blocking capacity; IC50 [3]: 16.8 ± 5 µM
CC(C)NCC(O)COc1cccc2ccccc12 (stereo not drawn) [Propranolol, propranolol] | 12 | IC50 [3]: 45 ± 7 µM; Blocking effect on TRPM8 menthol-evoked currents (β-blocker screen): showed a blocking effect
COc1ccccc1OCC(O)CN1CCN(CC(=O)Nc2c(C)cccc2C)CC1 (stereo not drawn) [Ranolazine, ranolazine] | 0 | –
Nc1nc2ccc(OC(F)(F)F)cc2s1 [Riluzole, riluzole] | 0 | –
NC(=O)c1cn(Cc2c(F)cccc2F)nn1 [Rufinamide, rufinamide] | 0 | –
CCCCNc1ccc(C(=O)OCCN(C)C)cc1 [Tetracaine, tetracaine] | 0 | –
